In patent US6737383B1, “Herbicidal oxadiazolidines” (priority 1999, dated 2004):

How the values were obtained:
surinam grass = assay: Test B pre/postemergence surinam grass; type: in vivo, Brachiaria decumbens
Outline: (§1)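 Herbicidal effect was estimated by eye on a ten-point control scale after plants spent twelve to sixteen days in a greenhouse following soil or foliar treatment. Foliar sprays targeted plants at one to four leaves; all doses were formulated in a non-phytotoxic solvent with surfactant.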

cocklebur = assay: Test B pre/postemergence cocklebur; type: in vivo, Xanthium strumarium
Outline: as §1

corn = assay: Test B pre/postemergence corn; type: in vivo, Zea mays
Outline: as §1

crabgrass = assay: Test B pre/postemergence crabgrass; type: in vivo, Digitaria sanguinalis
Outline: as §1

winter wheat [1] = assay: Test E winter wheat; type: in vivo, Triticum aestivum; conditions: Postemergence
Outline: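 Each compound, carried in a non-phytotoxic solvent blend including surfactant, was applied (postemergence: over the top of young plants at 1- to 4-leaf stage). Plants stayed in the greenhouse about 21 to 28 days before visual comparison with untreated controls.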

blackgrass = assay: Test E blackgrass; type: in vivo, Alopecurus myosuroides; conditions: Preemergence; for Blackgrass plant response rating (0 to 100 scale): Rate 250 g/ha
green foxtail = assay: Test E green foxtail; type: in vivo, Setaria viridis; conditions: Preemergence; for Green foxtail plant response rating (0 to 100 scale): Rate 250 g/ha
Italian ryegrass = assay: Test E Italian ryegrass; type: in vivo, Lolium multiflorum; conditions: Preemergence; for I. Ryegrass plant response rating (0 to 100 scale): Rate 250 g/ha
winter wheat [2] = assay: Test E winter wheat; type: in vivo, Triticum aestivum; conditions: Preemergence; for Wheat (winter) plant response rating (0 to 100 scale): Rate 250 g/ha
wild oat = assay: Test E wild oat; type: in vivo, Avena fatua; conditions: Preemergence; for Wild oat plant response rating (0 to 100 scale): Rate 250 g/ha
winter barley = assay: Test E winter barley; type: in vivo, Hordeum vulgare; conditions: Preemergence; for Barley (winter) plant response rating (0 to 100 scale): Rate 250 g/ha
[3] = Preemergence, Rate 62 g/ha, scale of 0 to 10 where 0 is no effect and 10 is complete control
[4] = Preemergence, Rate 250 g/ha, scale of 0 to 10 where 0 is no effect and 10 is complete control
[5] = Preemergence, Rate 500 g/ha, scale of 0 to 10 where 0 is no effect and 10 is complete control
[6] = Rate 62 g/ha, Postemergence, scale of 0 to 10 where 0 is no effect and 10 is complete control
[7] = Rate 125 g/ha, Preemergence, scale of 0 to 10 where 0 is no effect and 10 is complete control
[8] = Rate 500 g/ha, Postemergence, scale 0 to 10, 0 no effect, 10 complete control
[9] = Rate 125 g/ha, Postemergence, scale 0 to 10
[10] = Rate 1000 g/ha, 0 to 100 scale where 0 is no effect and 100 is complete control
[11] = Rate 500 g/ha, 0 to 100 scale, 0 is no effect, 100 is complete control
[12] = Rate 500 g/ha, 0 to 100 scale where 0 is no effect and 100 is complete control
[13] = Rate 1000 g/ha, 0 to 100 scale, 0 no effect, 100 complete control
[14] = Postemergence, Rate 125 g/ha, scale of 0 to 10 where 0 is no effect and 10 is complete control
[15] = Preemergence, Rate 125 g/ha, 0 is no effect, 10 is complete control
[16] = Preemergence, Rate 250 g/ha, scale 0 to 10, 0 is no effect, 10 is complete control
[17] = Preemergence, Rate 500 g/ha, scale 0 to 10 (0 no effect, 10 complete control)
[18] = Rate 250 g/ha, Postemergence, scale 0 to 10, 0 is no effect, 10 is complete control
[19] = Rate 500 g/ha, Postemergence, scale 0 to 10

CC(C)N(C(=O)n1oc(=O)n(CC(C)(C)C)c1=O)c1ccc(F)cc1 [Compound 246] was tested, and the “B. signalgrass plant response rating” value (surinam grass; [3]) was 0, the “B. signalgrass plant response rating” value (surinam grass; [4]) was 3 and the “Plant response rating, B. signalgrass” value (surinam grass; [5]) was 5. The “B. signalgrass plant response rating” value (surinam grass; [6]) was 0, the “B. signalgrass plant response rating” value (surinam grass; Rate 125 g/ha, Postemergence, scale 0 (no effect) to 10 (complete control)) was 0 and the “B. signalgrass plant response rating” value (surinam grass; [7]) was 2. For the same compound, the “Plant response rating (0 to 10; 0 is no effect, 10 is complete control), B. signalgrass” value (surinam grass; Rate 250 g/ha, Postemergence) was 0, the “B. signalgrass plant response rating” value (surinam grass; [8]) was 1 and the “Cocklebur plant response rating” value (cocklebur; [3]) was 0. For the same compound, the “Cocklebur plant response rating” value (cocklebur; [4]) was 0, the “Plant response rating, Cocklebur” value (cocklebur; [5]) was 0 and the “Cocklebur plant response rating” value (cocklebur; [6]) was 0. The “Cocklebur plant response rating” value (cocklebur; [9]) was 0, the “Cocklebur plant response rating” value (cocklebur; [7]) was 0 and the “Plant response rating (0 to 10; 0 is no effect, 10 is complete control), Cocklebur” value (cocklebur; Rate 250 g/ha, Postemergence) was 1. The “Cocklebur plant response rating” value (cocklebur; [8]) was 2, the “Corn plant response rating” value (corn; [3]) was 0 and the “Corn plant response rating” value (corn; [4]) was 0. For the same compound, the “Plant response rating, Corn” value (corn; [5]) was 3, the “Corn plant response rating” value (corn; [6]) was 0 and the “Corn plant response rating” value (corn; [9]) was 0. The “Corn plant response rating” value (corn; [7]) was 0, the “Plant response rating (0 to 10; 0 is no effect, 10 is complete control), Corn” value (corn; Rate 250 g/ha, Postemergence) was 0 and the “Corn plant response rating” value (corn; [8]) was 0. For the same compound, the “Crabgrass plant response rating” value (crabgrass; [3]) was 3, the “Crabgrass plant response rating” value (crabgrass; [4]) was 10 and the “Plant response rating, Crabgrass” value (crabgrass; [5]) was 10. The “Crabgrass plant response rating” value (crabgrass; [7]) was 3, the “Plant response rating (0 to 10; 0 is no effect, 10 is complete control), Crabgrass” value (crabgrass; Rate 250 g/ha, Postemergence) was 0 and the “Crabgrass plant response rating” value (crabgrass; [8]) was 3. For the same compound, the “Plant response rating, Wheat (winter)” value (winter wheat [1]; [10]) was 0, the “Wheat (winter) plant response rating” value (winter wheat [1]; Rate 250 g/ha, 0 to 100 scale where 0 is no effect and 100 is complete control) was 0 and the “Plant response rating, Wheat (winter)” value (winter wheat [1]; [11]) was 0. For the same compound, the “Blackgrass plant response rating (0 to 100 scale)” value (blackgrass) was 60, the “Plant response rating, Blackgrass” value (blackgrass; [12]) was 100 and the “Plant response rating, Blackgrass” value (blackgrass; [13]) was 100. For the same compound, the “Green foxtail plant response rating (0 to 100 scale)” value (green foxtail) was 100, the “Plant response rating, Green foxtail” value (green foxtail; [12]) was 100 and the “Plant response rating, Green foxtail” value (green foxtail; [13]) was 100. For the same compound, the “I. Ryegrass plant response rating (0 to 100 scale)” value (Italian ryegrass) was 80, the “Plant response rating, I. Ryegrass” value (Italian ryegrass; [12]) was 90 and the “Plant response rating, I. Ryegrass” value (Italian ryegrass; [13]) was 100. For the same compound, the “Wheat (winter) plant response rating (0 to 100 scale)” value (winter wheat [2]) was 50, the “Plant response rating, Wheat (winter)” value (winter wheat [2]; [13]) was 50 and the “Wild oat plant response rating (0 to 100 scale)” value (wild oat) was 50. For the same compound, the “Plant response rating, Wild oat” value (wild oat; [12]) was 65, the “Plant response rating, Wild oat” value (wild oat; [13]) was 85 and the “Barley (winter) plant response rating (0 to 100 scale)” value (winter barley) was 40. For the same compound, the “Plant response rating, Barley (winter)” value (winter barley; [12]) was 50 and the “Plant response rating, Barley (winter)” value (winter barley; [13]) was 60.
In the case of CC(C)N(C(=O)n1oc(=O)n([C@@H](C)c2ccccc2)c1=O)c1ccc(Cl)cc1 [Compound 174], the “B. signalgrass plant response rating” value (surinam grass; [14]) is reported as 0, the “B. signalgrass plant response rating” value (surinam grass; [3]) is reported as 0 and the “B. signalgrass plant response rating (0 to 10 scale)” value (surinam grass; [15]) is reported as 0. For the same compound, the “B. signalgrass plant response rating” value (surinam grass; [16]) was 0, the “B. signalgrass plant response rating” value (surinam grass; [17]) was 4 and the “B. signalgrass plant response rating” value (surinam grass; [6]) was 0. For the same compound, the “Plant response rating, B. signalgrass” value (surinam grass; [18]) was 0, the “B. signalgrass plant response rating” value (surinam grass; [8]) was 0 and the “Cocklebur plant response rating” value (cocklebur; [14]) was 1. The “Cocklebur plant response rating” value (cocklebur; [3]) was 0, the “Cocklebur plant response rating (0 to 10 scale)” value (cocklebur; [15]) was 0 and the “Cocklebur plant response rating” value (cocklebur; [16]) was 0. The “Cocklebur plant response rating” value (cocklebur; [17]) was 0, the “Cocklebur plant response rating” value (cocklebur; [6]) was 0 and the “Plant response rating, Cocklebur” value (cocklebur; [18]) was 2. The “Cocklebur plant response rating” value (cocklebur; [19]) was 3, the “Corn plant response rating” value (corn; [14]) was 0 and the “Corn plant response rating” value (corn; [3]) was 0. The “Corn plant response rating (0 to 10 scale)” value (corn; [15]) was 0, the “Corn plant response rating” value (corn; [16]) was 0 and the “Corn plant response rating” value (corn; [17]) was 0. For the same compound, the “Corn plant response rating” value (corn; [6]) was 0, the “Plant response rating, Corn” value (corn; [18]) was 0 and the “Corn plant response rating” value (corn; [19]) was 0. The “Crabgrass plant response rating” value (crabgrass; [14]) was 4, the “Crabgrass plant response rating” value (crabgrass; [3]) was 2 and the “Crabgrass plant response rating (0 to 10 scale)” value (crabgrass; [15]) was 8. The “Crabgrass plant response rating” value (crabgrass; [16]) was 8, the “Crabgrass plant response rating” value (crabgrass; [17]) was 10 and the “Crabgrass plant response rating” value (crabgrass; [6]) was 2. For the same compound, the “Plant response rating, Crabgrass” value (crabgrass; [18]) was 7, the “Crabgrass plant response rating” value (crabgrass; [19]) was 8 and the “Plant response rating, Wheat (winter)” value (winter wheat [1]; Rate 1000 g/ha, 0 to 100 scale, 0 is no effect and 100 is complete control) was 50. The “Plant response rating, Wheat (winter)” value (winter wheat [1]; [11]) was 40, the “Blackgrass plant response rating (0 to 100 scale)” value (blackgrass) was 30 and the “Plant response rating, Blackgrass” value (blackgrass; [12]) was 50. The “Plant response rating, Blackgrass” value (blackgrass; [10]) was 55, the “Green foxtail plant response rating (0 to 100 scale)” value (green foxtail) was 30 and the “Plant response rating, Green foxtail” value (green foxtail; [12]) was 50. For the same compound, the “Plant response rating, Green foxtail” value (green foxtail; [10]) was 85, the “I. Ryegrass plant response rating (0 to 100 scale)” value (Italian ryegrass) was 0 and the “Plant response rating, I. Ryegrass” value (Italian ryegrass; [12]) was 20. For the same compound, the “Plant response rating, I. Ryegrass” value (Italian ryegrass; [10]) was 40, the “Wheat (winter) plant response rating (0 to 100 scale)” value (winter wheat [2]) was 60 and the “Plant response rating, Wheat (winter)” value (winter wheat [2]; [12]) was 50. For the same compound, the “Plant response rating, Wheat (winter)” value (winter wheat [2]; [10]) was 40, the “Wild oat plant response rating (0 to 100 scale)” value (wild oat) was 50 and the “Plant response rating, Wild oat” value (wild oat; [12]) was 40. The “Plant response rating, Wild oat” value (wild oat; [10]) was 50, the “Barley (winter) plant response rating (0 to 100 scale)” value (winter barley) was 0 and the “Plant response rating, Barley (winter)” value (winter barley; [12]) was 0. The “Plant response rating, Barley (winter)” value (winter barley; [10]) was 10.
